The supplement of paper PMC10307832

Legend:
Experiment in all cases: relative viability (nuclei count vs DMSO), 5 days (fraction); higher = more cells survive
Tozasertib + Dasatinib = compound: Cc1cc(Nc2cc(N3CCN(C)CC3)nc(Sc3ccc(NC(=O)C4CC4)cc3)n2)n[nH]1 [Tozasertib] + Cc1nc(Nc2ncc(C(=O)Nc3c(C)cccc3Cl)s2)cc(N2CCN(CCO)CC2)n1 [Dasatinib] (partner 0.075 µM)
Summary of the method: (§1)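 Medians of duplicate plates are given as relative viability. That measure is the nuclei count in treated wells divided by the count in vehicle wells. Counts were taken on 4× images of lung cancer cell lines in 1536-well plates, 5 days after pin-tool dosing the day after seeding with one drug alone or a fixed anchor-drug dose plus five library-drug doses (not always all listed) in √10 steps.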

Tozasertib + OSI-027 = compound: Cc1cc(Nc2cc(N3CCN(C)CC3)nc(Sc3ccc(NC(=O)C4CC4)cc3)n2)n[nH]1 [Tozasertib] + COc1cccc2cc(-c3nc([C@H]4CC[C@H](C(=O)O)CC4)n4ncnc(N)c34)[nH]c12 [OSI-027] (partner 0.5 µM)
Summary of the method: as §1

Tozasertib + Alpelisib = compound: Cc1cc(Nc2cc(N3CCN(C)CC3)nc(Sc3ccc(NC(=O)C4CC4)cc3)n2)n[nH]1 [Tozasertib] + Cc1nc(NC(=O)N2CCC[C@H]2C(N)=O)sc1-c1ccnc(C(C)(C)C(F)(F)F)c1 [Alpelisib] (partner 2 µM)
Summary of the method: as §1

Tozasertib = compound: Cc1cc(Nc2cc(N3CCN(C)CC3)nc(Sc3ccc(NC(=O)C4CC4)cc3)n2)n[nH]1 [Tozasertib]
Summary of the method: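 MetaXpress counted nuclei in 4× images of lung cancer cell lines that had been fixed, permeabilised and Hoechst-stained in one step. Before that, cells in 1536-well plates were kept overnight at 37 °C, pinned with five √10-spaced library-drug doses on vehicle-anchored plates, and cultured 5 days without medium change. Viability takes treated-well nuclei over vehicle-well nuclei and uses the median across plates. Plates were accepted only at control CV below 25% and at least one doubling.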

Cell Line | relative viability (Tozasertib + Dasatinib; first compound 0.004 µM) | relative viability (Tozasertib + Dasatinib; first compound 0.01265 µM) | relative viability (Tozasertib + Dasatinib; first compound 0.04 µM) | relative viability (Tozasertib + Dasatinib; first compound 0.1265 µM) | relative viability (Tozasertib + OSI-027; first compound 0.004 µM) | relative viability (Tozasertib + OSI-027; first compound 0.01265 µM) | relative viability (Tozasertib + OSI-027; first compound 0.04 µM) | relative viability (Tozasertib + OSI-027; first compound 0.1265 µM) | relative viability (Tozasertib + Alpelisib; first compound 0.004 µM) | relative viability (Tozasertib + Alpelisib; first compound 0.01265 µM) | relative viability (Tozasertib + Alpelisib; first compound 0.04 µM) | relative viability (Tozasertib + Alpelisib; first compound 0.1265 µM) | relative viability (Tozasertib; 0.004 µM) | relative viability (Tozasertib; 0.01265 µM) | relative viability (Tozasertib; 0.04 µM) | relative viability (Tozasertib; 0.1 µM, anchor plate) | relative viability (Tozasertib; 0.1265 µM)
NCI-H1944 | 0.217 | 0.217 | 0.206 | 0.147 | 0.471 | 0.397 | 0.422 | 0.247 | 0.785 | 0.75 | 0.891 | 0.495 | 1.01 | 0.963 | 0.901 | 0.263 | 0.526
NCI-H1755 | 0.44 | 0.486 | 0.474 | 0.312 | 0.661 | 0.636 | 0.725 | 0.601 | 0.518 | 0.908 | 0.948 | 0.629 | 1.03 | 0.994 | 1.04 | 0.577 | 0.953
PC-14 |  | 0.292 | 0.254 | 0.132 |  | 0.795 | 1.06 | 0.523 | 0.982 | 0.95 | 0.954 | 0.956 | 0.81 | 0.904 | 1.1 | 0.601 | 0.638
NCI-H2085 | 0.235 | 0.231 | 0.244 | 0.228 | 0.769 | 0.726 | 0.828 | 0.695 | 0.999 | 0.963 | 0.873 | 0.804 | 1.02 | 0.982 | 0.984 | 0.84 | 0.915
SK-MES-1 | 0.358 | 0.336 | 0.342 | 0.356 | 0.518 | 0.633 | 0.647 | 0.531 | 0.967 | 0.746 | 0.894 | 0.535 | 1.03 | 1 | 1.1 | 0.885 | 0.955
LU99A | 0.751 | 0.513 | 0.547 | 0.373 | 0.307 | 0.278 | 0.269 | 0.269 | 0.648 | 0.507 | 0.463 | 0.267 | 1.05 | 0.904 | 0.824 | 0.282 | 0.594
NCI-H661 | 1.12 | 0.85 | 0.699 | 0.249 | 0.731 | 0.747 | 0.722 | 0.302 | 0.568 | 0.735 | 0.776 | 0.496 | 0.976 | 0.94 | 1 | 0.367 | 0.68
EMC-BAC-2 | 0.314 | 0.321 | 0.342 | 0.259 | 0.381 | 0.389 | 0.381 | 0.262 | 0.771 |  | 0.724 | 0.428 | 1.01 | 0.946 | 0.913 | 0.294 | 0.486
